The target of test [1] is Receptor tyrosine-protein kinase erbB-2 (Homo sapiens) (UniProt P04626). Kind of test: Inhibition of ERBB2 (unknown origin) assessed as residual activity at 1000 nM by KINOMEscan analysis relative to control.
Test [2] has as its target Bone morphogenetic protein receptor type-1B (Homo sapiens) (UniProt O00238). Kind of test: Inhibition of BMPR1B (unknown origin) assessed as residual activity at 1000 nM by KINOMEscan analysis relative to control.
Test [3] addresses Serine/threonine-protein kinase VRK2 (Homo sapiens) (UniProt Q86Y07). Kind of test: Inhibition of VRK2 (unknown origin) assessed as residual activity at 1000 nM by KINOMEscan analysis relative to control.
For test [4], the target named is Serine/threonine-protein kinase PAK 4 (Homo sapiens) (UniProt O96013). The experiment in a line: Inhibition of PAK4 (unknown origin) assessed as residual activity at 1000 nM by KINOMEscan analysis relative to control.
Chain of Serine/threonine-protein kinase PAK 4 (Homo sapiens) (O96013 whole entry, looked up): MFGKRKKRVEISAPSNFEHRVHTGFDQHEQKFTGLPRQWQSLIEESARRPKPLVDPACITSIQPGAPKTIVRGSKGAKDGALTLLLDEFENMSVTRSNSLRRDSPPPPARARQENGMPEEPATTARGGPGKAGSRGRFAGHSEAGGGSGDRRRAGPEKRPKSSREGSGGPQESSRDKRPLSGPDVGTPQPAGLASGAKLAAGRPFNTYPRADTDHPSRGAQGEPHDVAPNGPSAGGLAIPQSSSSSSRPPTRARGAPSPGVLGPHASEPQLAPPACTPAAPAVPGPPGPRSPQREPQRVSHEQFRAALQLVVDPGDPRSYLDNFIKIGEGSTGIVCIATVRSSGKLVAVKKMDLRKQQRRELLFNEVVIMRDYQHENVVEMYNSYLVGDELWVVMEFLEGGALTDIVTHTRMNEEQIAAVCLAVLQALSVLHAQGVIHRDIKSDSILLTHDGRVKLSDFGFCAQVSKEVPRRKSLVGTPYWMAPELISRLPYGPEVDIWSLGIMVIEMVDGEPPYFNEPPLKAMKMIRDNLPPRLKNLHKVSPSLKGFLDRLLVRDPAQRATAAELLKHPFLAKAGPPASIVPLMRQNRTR
Test [5] addresses T1, Serine/threonine-protein kinase 17A (Homo sapiens) (UniProt Q9UEE5).
T1 sequence (whole entry): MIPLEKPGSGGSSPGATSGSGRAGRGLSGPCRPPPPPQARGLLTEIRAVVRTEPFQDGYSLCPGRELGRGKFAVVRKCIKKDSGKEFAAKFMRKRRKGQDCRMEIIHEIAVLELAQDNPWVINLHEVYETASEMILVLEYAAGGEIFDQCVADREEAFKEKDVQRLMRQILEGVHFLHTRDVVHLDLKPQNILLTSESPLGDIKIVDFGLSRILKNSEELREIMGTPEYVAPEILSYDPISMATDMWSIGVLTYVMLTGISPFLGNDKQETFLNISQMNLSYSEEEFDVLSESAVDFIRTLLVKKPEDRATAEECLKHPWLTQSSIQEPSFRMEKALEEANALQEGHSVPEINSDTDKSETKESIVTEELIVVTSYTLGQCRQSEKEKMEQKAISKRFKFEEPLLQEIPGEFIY
The experiment in a line: Inhibition of DRAK1 (unknown origin) assessed as residual activity at 1000 nM by KINOMEscan analysis relative to control.

Test [6] concerns the target Serine/threonine-protein kinase 10 (Homo sapiens) (UniProt O94804). The experiment in a line: Inhibition of LOK (unknown origin) assessed as residual activity at 1000 nM by KINOMEscan analysis relative to control.
For test [7], the target named is Cyclin-dependent kinase 3 (Homo sapiens) (UniProt Q00526). The experiment in a line: Inhibition of CDK3 (unknown origin) assessed as residual activity at 1000 nM by KINOMEscan analysis relative to control.
Chain of Cyclin-dependent kinase 3 (Homo sapiens) (Q00526 whole entry, looked up): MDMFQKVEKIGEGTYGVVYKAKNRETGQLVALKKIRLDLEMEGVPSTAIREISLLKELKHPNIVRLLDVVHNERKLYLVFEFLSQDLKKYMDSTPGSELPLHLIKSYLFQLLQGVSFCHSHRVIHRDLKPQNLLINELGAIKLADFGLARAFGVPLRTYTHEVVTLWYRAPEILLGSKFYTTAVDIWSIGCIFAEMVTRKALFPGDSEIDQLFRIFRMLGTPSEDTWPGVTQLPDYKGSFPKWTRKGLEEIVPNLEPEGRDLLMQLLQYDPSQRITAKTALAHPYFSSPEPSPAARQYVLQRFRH
Test [8] concerns the target SRSF protein kinase 1 (Homo sapiens) (UniProt Q96SB4). Kind of test: Inhibition of SRPK1 (unknown origin) assessed as residual activity at 1000 nM by KINOMEscan analysis relative to control.
Test [9] concerns the target Receptor tyrosine-protein kinase erbB-3 (Homo sapiens) (UniProt P21860). Kind of test: Inhibition of ERBB3 (unknown origin) assessed as residual activity at 1000 nM by KINOMEscan analysis relative to control.
Test [10] deals with Myosin light chain kinase, smooth muscle (Homo sapiens) (UniProt Q15746). The experiment in a line: Inhibition of MYLK (unknown origin) assessed as residual activity at 1000 nM by KINOMEscan analysis relative to control.
Chain of Myosin light chain kinase, smooth muscle (Homo sapiens) (Q15746 whole entry): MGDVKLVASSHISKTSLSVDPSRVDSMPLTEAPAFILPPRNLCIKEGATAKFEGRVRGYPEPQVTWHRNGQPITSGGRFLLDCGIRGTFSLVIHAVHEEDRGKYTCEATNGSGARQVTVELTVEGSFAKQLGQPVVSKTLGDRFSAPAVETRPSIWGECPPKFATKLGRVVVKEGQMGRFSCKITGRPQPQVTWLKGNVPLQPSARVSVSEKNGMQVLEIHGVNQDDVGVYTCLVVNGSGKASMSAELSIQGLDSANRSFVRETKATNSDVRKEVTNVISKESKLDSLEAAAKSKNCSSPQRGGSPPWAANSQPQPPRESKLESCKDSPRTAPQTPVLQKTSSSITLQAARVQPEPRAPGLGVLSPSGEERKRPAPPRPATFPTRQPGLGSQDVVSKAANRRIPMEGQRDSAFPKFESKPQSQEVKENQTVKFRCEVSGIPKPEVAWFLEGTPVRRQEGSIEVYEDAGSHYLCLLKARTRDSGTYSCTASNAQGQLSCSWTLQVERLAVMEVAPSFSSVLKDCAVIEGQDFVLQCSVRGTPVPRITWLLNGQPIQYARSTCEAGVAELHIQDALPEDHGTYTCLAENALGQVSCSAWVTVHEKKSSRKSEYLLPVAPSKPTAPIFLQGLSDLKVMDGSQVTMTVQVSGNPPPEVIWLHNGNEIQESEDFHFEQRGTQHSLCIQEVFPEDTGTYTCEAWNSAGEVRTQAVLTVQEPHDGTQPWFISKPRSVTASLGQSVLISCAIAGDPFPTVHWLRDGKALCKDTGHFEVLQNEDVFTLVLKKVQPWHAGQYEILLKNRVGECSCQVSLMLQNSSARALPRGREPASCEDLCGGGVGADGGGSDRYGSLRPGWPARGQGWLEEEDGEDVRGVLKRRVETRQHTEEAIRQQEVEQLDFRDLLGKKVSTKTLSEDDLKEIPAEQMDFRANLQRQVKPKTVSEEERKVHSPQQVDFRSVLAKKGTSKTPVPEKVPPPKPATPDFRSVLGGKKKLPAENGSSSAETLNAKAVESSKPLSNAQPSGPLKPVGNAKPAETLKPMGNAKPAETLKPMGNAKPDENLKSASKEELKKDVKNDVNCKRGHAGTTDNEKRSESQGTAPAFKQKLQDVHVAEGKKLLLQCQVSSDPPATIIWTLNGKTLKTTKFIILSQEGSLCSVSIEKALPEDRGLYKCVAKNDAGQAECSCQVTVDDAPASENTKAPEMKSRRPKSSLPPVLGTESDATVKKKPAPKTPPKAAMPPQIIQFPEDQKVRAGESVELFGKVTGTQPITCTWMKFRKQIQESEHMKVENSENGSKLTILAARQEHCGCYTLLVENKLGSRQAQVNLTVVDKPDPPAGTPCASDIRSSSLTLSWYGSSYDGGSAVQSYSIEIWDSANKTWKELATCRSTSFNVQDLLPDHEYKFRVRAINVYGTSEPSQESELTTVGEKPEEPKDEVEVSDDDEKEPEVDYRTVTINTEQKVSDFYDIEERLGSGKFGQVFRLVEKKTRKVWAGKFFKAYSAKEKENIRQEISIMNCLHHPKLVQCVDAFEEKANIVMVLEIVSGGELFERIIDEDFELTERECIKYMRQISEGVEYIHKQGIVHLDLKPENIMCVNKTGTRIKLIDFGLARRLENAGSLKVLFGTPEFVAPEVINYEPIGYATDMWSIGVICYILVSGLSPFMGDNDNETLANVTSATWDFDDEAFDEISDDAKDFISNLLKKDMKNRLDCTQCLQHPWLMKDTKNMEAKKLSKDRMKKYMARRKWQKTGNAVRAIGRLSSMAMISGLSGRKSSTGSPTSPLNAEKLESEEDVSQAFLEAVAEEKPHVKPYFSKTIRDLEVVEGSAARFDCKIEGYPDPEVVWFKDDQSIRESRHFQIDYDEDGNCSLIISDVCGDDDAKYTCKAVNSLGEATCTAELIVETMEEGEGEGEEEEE
Test [11] deals with Tyrosine-protein kinase ABL1 (Homo sapiens), P00519 [F317L]. Kind of test: Inhibition of phosphorylated ABL1 F317L mutant (unknown origin) assessed as residual activity at 1000 nM by KINOMEscan analysis relative to control.
The target in test [12] is Calcium/calmodulin-dependent protein kinase type II subunit delta (Homo sapiens) (UniProt Q13557). The experiment in a line: Inhibition of CAMK2D (unknown origin) assessed as residual activity at 1000 nM by KINOMEscan analysis relative to control.
Test [13] addresses Dual specificity protein kinase CLK4 (Homo sapiens) (UniProt Q9HAZ1). The experiment in a line: Inhibition of CLK4 (unknown origin) assessed as residual activity at 1000 nM by KINOMEscan analysis relative to control.
Test [14] has as its system Receptor-type tyrosine-protein kinase FLT3 (Homo sapiens), P36888 [UNDEFINED MUTATION]. Kind of test: Inhibition of FLT3 ITD mutant (unknown origin) assessed as residual activity at 1000 nM by KINOMEscan analysis relative to control.
The target in test [15] is Serine/threonine-protein kinase PAK 5 (Homo sapiens) (UniProt Q9P286). Kind of test: Inhibition of PAK7 (unknown origin) assessed as residual activity at 1000 nM by KINOMEscan analysis relative to control.
Test [16] has as its target Ephrin type-A receptor 2 (Homo sapiens) (UniProt P29317). The experiment in a line: Inhibition of EPHA2 (unknown origin) assessed as residual activity at 1000 nM by KINOMEscan analysis relative to control.
The target of test [17] is Calcium/calmodulin-dependent protein kinase type II subunit alpha (Homo sapiens) (UniProt Q9UQM7). The experiment in a line: Inhibition of CAMK2A (unknown origin) assessed as residual activity at 1000 nM by KINOMEscan analysis relative to control.
Test [18] addresses T2, MAP kinase-activated protein kinase 5 (Homo sapiens) (UniProt Q8IW41).
T2 sequence (whole entry): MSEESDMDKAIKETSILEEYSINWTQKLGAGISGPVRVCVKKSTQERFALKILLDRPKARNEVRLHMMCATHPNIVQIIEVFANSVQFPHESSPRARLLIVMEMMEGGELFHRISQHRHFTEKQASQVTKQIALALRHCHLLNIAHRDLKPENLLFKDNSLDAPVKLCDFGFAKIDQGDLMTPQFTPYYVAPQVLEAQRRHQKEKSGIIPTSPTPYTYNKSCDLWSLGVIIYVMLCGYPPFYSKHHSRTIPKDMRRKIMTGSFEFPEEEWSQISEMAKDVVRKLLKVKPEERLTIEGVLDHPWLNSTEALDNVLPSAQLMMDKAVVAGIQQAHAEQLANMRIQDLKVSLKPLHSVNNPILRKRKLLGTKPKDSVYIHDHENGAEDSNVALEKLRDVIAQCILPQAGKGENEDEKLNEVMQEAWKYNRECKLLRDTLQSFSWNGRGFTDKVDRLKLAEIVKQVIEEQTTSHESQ
The experiment in a line: Inhibition of MAPKAPK5 (unknown origin) assessed as residual activity at 1000 nM by KINOMEscan analysis relative to control.

Test [19] concerns the target Homeodomain-interacting protein kinase 1 (Homo sapiens) (UniProt Q86Z02). Kind of test: Inhibition of HIPK1 (unknown origin) assessed as residual activity at 1000 nM by KINOMEscan analysis relative to control.
Test [20] deals with Serine/threonine-protein kinase PLK1 (Homo sapiens) (UniProt P53350). Kind of test: Inhibition of PLK1 (unknown origin) assessed as residual activity at 1000 nM by KINOMEscan analysis relative to control.
Chain of Serine/threonine-protein kinase PLK1 (Homo sapiens) (P53350 whole entry, canonical isoform): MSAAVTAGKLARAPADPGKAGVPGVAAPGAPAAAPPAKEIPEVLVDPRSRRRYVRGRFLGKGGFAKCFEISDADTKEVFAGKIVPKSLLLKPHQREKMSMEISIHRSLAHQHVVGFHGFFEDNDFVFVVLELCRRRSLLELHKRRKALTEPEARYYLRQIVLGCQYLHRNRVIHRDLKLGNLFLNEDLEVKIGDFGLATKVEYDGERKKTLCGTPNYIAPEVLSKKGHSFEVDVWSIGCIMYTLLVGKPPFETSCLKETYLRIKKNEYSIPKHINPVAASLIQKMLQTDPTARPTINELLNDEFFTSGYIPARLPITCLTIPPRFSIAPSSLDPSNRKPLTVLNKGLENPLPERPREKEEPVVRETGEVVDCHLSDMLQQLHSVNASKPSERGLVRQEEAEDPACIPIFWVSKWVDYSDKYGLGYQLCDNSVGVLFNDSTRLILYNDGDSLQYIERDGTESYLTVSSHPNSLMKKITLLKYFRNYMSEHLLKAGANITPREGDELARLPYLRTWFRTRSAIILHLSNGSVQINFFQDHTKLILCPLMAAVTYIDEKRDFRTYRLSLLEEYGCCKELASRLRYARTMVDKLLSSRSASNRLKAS
For test [21], the target named is Casein kinase I isoform gamma-1 (Homo sapiens) (UniProt Q9HCP0). The experiment in a line: Inhibition of CSNK1G1 (unknown origin) assessed as residual activity at 1000 nM by KINOMEscan analysis relative to control.
The target in test [22] is Casein kinase II subunit alpha (Homo sapiens) (UniProt P68400). Kind of test: Inhibition of CSNK2A1 (unknown origin) assessed as residual activity at 1000 nM by KINOMEscan analysis relative to control.
Chain of Casein kinase II subunit alpha (Homo sapiens) (P68400 whole entry, looked up): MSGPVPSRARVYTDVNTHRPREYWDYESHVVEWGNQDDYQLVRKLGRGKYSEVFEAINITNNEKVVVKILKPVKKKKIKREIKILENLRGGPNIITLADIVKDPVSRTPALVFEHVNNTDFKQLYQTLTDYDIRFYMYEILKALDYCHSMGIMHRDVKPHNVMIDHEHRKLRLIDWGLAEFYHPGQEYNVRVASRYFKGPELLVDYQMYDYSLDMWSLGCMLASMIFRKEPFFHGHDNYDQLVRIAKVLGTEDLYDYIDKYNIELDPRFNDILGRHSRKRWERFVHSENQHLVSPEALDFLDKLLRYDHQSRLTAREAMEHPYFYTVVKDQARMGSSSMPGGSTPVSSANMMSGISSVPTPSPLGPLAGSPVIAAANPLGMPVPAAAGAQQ

Each structure is given as a SMILES string.

Chain of Ephrin type-A receptor 2 (Homo sapiens) (P29317 whole entry): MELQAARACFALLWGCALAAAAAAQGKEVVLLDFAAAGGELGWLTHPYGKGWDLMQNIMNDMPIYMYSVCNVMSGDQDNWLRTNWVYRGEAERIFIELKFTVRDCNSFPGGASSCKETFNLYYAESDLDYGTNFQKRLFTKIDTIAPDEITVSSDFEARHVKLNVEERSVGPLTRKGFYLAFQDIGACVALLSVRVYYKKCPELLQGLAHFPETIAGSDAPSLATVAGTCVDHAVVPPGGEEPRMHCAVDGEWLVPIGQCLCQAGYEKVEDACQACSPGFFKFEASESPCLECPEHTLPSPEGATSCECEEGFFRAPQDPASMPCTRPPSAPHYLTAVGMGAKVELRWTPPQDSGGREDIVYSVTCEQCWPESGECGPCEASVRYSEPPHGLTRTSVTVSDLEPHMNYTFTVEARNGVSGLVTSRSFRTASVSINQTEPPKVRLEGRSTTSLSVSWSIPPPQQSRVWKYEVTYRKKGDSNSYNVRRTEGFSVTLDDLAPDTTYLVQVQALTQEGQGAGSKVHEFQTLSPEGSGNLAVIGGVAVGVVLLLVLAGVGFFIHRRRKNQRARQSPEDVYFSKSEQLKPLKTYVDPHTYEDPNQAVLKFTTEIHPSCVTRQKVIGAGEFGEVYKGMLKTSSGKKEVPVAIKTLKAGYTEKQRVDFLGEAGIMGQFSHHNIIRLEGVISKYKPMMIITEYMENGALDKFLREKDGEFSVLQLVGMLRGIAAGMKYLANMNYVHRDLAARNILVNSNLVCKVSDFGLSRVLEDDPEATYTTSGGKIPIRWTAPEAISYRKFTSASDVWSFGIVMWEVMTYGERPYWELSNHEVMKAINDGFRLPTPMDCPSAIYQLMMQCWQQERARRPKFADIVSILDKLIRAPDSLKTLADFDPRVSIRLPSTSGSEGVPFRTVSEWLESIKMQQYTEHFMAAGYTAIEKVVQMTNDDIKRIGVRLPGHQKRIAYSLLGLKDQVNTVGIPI

On to `COc1cc2nc(C)nc(N[C@H](C)c3cccc(-c4cn[nH]c4)c3)c2cc1OC`, for which the Activity in test [1] came to 76%; in test [2], 98%; in [3] it was 93%; in test [4], 86%; in test [5], 87%; in test [6], 56%. Also, the Activity in test [7] came to 90%; in test [8] it was 77%; in [9] it was 96%; in test [10], 97%; in [11] it was 92%; in test [12], 100%. The Activity in test [13] stood at 93%; in test [14], 58%; in [15] it was 96%; in [16] it was 45%; in test [17], 94%; in [18] it was 85%. Also, the Activity in test [19] amounted to 67%; in [20] it was 100%; in test [21], 96%; in test [22] it was 70%.
Regarding `COc1cc2ncnc(N[C@H](C)c3cccc4ccccc34)c2cc1OC`, the Activity in test [1] was found to be 26%; in [2] it was 94%; in test [3], 81%; in test [4] it was 100%; in [5] it was 100%; in test [6] it was 44%. For the same compound, the Activity in test [7] came to 97%; in test [8] it was 98%; in test [9] it was 92%; in test [10], 88%; in [11], 89%; in test [12] it was 100%. Further, the Activity in test [13] amounted to 100%; in test [14], 96%; in [15], 100%; in test [16], 94%; in [17], 95%; in [18], 87%. Besides, the Activity in test [19] turned out to be 89%; in [20], 92%; in test [21], 100%; in [22], 100%.

The record behind these values is ChEMBL document CHEMBL5678818, “Discovery of potent SOS1 inhibitors that block RAS activation via disruption of the RAS-SOS1 interaction” (Proc Natl Acad Sci U S A, 2019).
